{
  "source": "patent US20220257758A1",
  "about": "“METHODS OF ADMINISTERING ANTI-SIGLEC-8 ANTIBODIES AND CORTICOSTEROIDS” (priority 2019, published 2022)",
  "format_in_all_cases": "in vivo, human",
  "key": {"[1]": {"tested_on": "patients with eosinophilic esophagitis (EoE)", "assay": "Phase 2 study: exploratory assessment of comorbid eosinophilic esophagitis (EoE)", "method": "(§1) 65 patients were enrolled in 3 arms. In the first arm, 22 patients received anti-Siglec-8 antibody (non-fucosylated IgG1 antibody HEKA) in the following doses: 0.3 mg/kg for first dose, and 1.0 mg/kg for second, third, and fourth doses (“low dose”). In the second arm, 22 patients received the anti-Siglec-8 antibody in the following doses: 0.3 mg/kg for first dose, 1.0 mg/kg for second dose, and 3.0 mg/kg for the third and fourth doses (“high dose”). Patients in the third arm received placebo. All doses were provided monthly.\nSecondary endpoints included the percentage of responders to treatment and change in symptoms as reported by PRO questionnaire (both comparing week 13-14 vs. baseline), as well as an exploratory assessment of comorbid eosinophilic esophagitis (EoE). Symptoms reported by the PRO questionnaire included abdominal pain, nausea, diarrhea, vomiting, fullness before finishing a meal, loss of appetite, abdominal cramping, and bloating. Each of the 8 symptoms was measured on a scale from 0 to 10 (with 80 total points possible). This questionnaire captured the most significant symptoms of EG/EGE. Treatment responder was defined as >75% reduction in tissue biopsy eosinophil counts and >30% reduction in Total Symptom Score (TSS) from the PRO questionnaire at weeks 13-14. […]"}, "[2]": {"tested_on": "eosinophils per HPF observed in GI biopsies", "assay": "Phase 2 study in EG and/or EGE: change in eosinophils per HPF in GI biopsies", "source_text": "(§2) This study was a randomized, double-blind, placebo-controlled study. […] All patients reported an average weekly score of ≥3 (on a scale from 0-10), recorded for either abdominal pain, diarrhea and/or nausea on a Patient Reported Outcome (PRO) questionnaire during at least 2 out of 3 weeks of PRO collection. A minimum of four questionnaires were completed each qualifying week.\nFurther, all patients either failed or had disease symptoms not adequately controlled by standard-of-care treatments for EG/EGE symptoms, which could include proton pump inhibitors (PPIs), systemic or topical corticosteroids, and/or diet, among others.\nIn addition, each patient was confirmed to have EG and/or EGE by esophagogastroduodenoscopy (EGD), as defined by eosinophilia of the gastric mucosa ([…] eosinophils/HPF in 5 HPFs) and/or eosinophilia of the duodenal mucosa (30 eosinophils/HPF in 3 HPFs) from the EGD performed during the screening period, without any other cause for the gastric eosinophilia (e.g., parasitic or other infection or malignancy). For more details, see ClinicalTrials.gov Identifier NCT03496571.\nas §1\nThe primary endpoint was the percentage of change in eosinophils per HPF observed in GI biopsies before and after receiving treatment or placebo. Mean percent change in eosinophil counts was calculated by comparing count at week 14 of treatment versus baseline count."}, "[3]": {"tested_on": "patients with eosinophilic gastritis (EG) and/or eosinophilic gastroenteritis (EGE)", "assay": "Phase 2 open-label extension study: infusion-related reactions with corticosteroid premedication", "details": "58 patients to date; 80 mg oral prednisone 12-24 hours prior to first infusion, plus solumedrol, cetirizine, acetaminophen about 1 hour prior; 1 mg/kg first infusion then 3 mg/kg every 4 weeks", "method": "Approximately 60 patients are enrolled in this extension study, based on the maximum enrollment from a Phase 2 study. Patients who complete the Phase 2 study have the option to receive anti-Siglec-8 antibody in an open-label fashion.\n1 mg/kg anti-Siglec-8 antibody (non-fucosylated IgG1 antibody HEKA) is administered for the first infusion, followed by a dose of 3 mg/kg administered every 4 weeks thereafter. Patients receive up to 8 infusions of anti-Siglec-8 antibody administered every 28(±3) days.\nPrior to the first infusion of AK002, 80 mg oral prednisone is given 12-24 hours prior to infusions and solumedrol (100 mg IV), cetirizine (10 mg oral), and acetaminophen (975-1000 mg oral) are given about 1 hour prior to infusion.\nIn this ongoing extension study, corticosteroid has been administered 12-24 hours prior to each of the first anti-Siglec-8 antibody dose (as described above)."}, "[4]": {"tested_on": "patients with eosinophilic gastritis (EG) and/or eosinophilic gastroenteritis (EGE)", "assay": "Phase 2 study in EG and/or EGE: Total Symptom Score (TSS) from PRO questionnaire", "source_text": "as §2, §1\n(§3) Secondary endpoints included the percentage of responders to treatment and change in symptoms as reported by PRO questionnaire (both comparing week 13-14 vs. baseline), as well as an exploratory assessment of comorbid eosinophilic esophagitis (EoE). Symptoms reported by the PRO questionnaire included abdominal pain, nausea, diarrhea, vomiting, fullness before finishing a meal, loss of appetite, abdominal cramping, and bloating. Each of the 8 symptoms was measured on a scale from 0 to 10 (with 80 total points possible). This questionnaire captured the most significant symptoms of EG/EGE. Treatment responder was defined as >75% reduction in tissue biopsy eosinophil counts and >30% reduction in Total Symptom Score (TSS) from the PRO questionnaire at weeks 13-14. These endpoints were designed to show (1) tissue eosinophil depletion, (2) symptom improvement, and (3) that these effects occurred in the same individuals."}, "[5]": {"tested_on": "patients with eosinophilic gastritis (EG) and/or eosinophilic gastroenteritis (EGE)", "assay": "Phase 2 study in EG and/or EGE: treatment responders", "method": "as §1, §3"}, "[6]": {"tested_on": "patients with eosinophilic gastritis (EG) and/or eosinophilic gastroenteritis (EGE)", "assay": "Phase 2 study in EG and/or EGE: safety and tolerability", "source_text": "This Example describes results from a Phase 2 examining treatment of patients with eosinophilic gastritis (EG) and/or eosinophilic gastroenteritis (EGE) using a humanized, non-fucosylated IgG1 monoclonal anti-Siglec-8 antibody (HEKA). Specifically, this study evaluated the safety and tolerability of anti-Siglec-8 antibody in patients with EG and/or EGE.\nas §1"}},
  "note": "Entries after “also recorded” stand apart in the source; their conditions may differ.",
  "data": [
    {"substance": "anti-Siglec-8 antibody: humanized, non-fucosylated IgG1 monoclonal anti-Siglec-8 antibody (HEKA); VH SEQ ID NO: 6, VL SEQ ID NO: 16; heavy chain SEQ ID NO: 75, light chain SEQ ID NO: 76", "values": [
      {"measurement": "improvement in dysphagia", "setting": "[1]; patients with EoE", "result": "substantial improvement in dysphagia"},
      {"measurement": "EoE patients showing <5 eosinophils per HPF", "setting": "[1]; week 14 of treatment, 13 of 14 EoE patients", "result": 93, "unit": "%"},
      {"measurement": "patients with gastric and duodenal eosinophil counts of <30/HPF", "setting": "[2]; 37 out of 39 patients receiving antibody", "result": 95, "unit": "%"},
      {"measurement": "mean reduction in eosinophil count", "setting": "[2]; both treatment groups, baseline to weeks 13-14, p-value <0.0001", "result": 95, "unit": "%"},
      {"measurement": "reduction in eosinophil count", "setting": "[2]; high dose arm (0.3, 1.0, 3.0, 3.0 mg/kg monthly), baseline to weeks 13-14", "result": 97, "unit": "%"},
      {"measurement": "reduction in eosinophil count", "setting": "[2]; low dose arm (0.3, 1.0, 1.0, 1.0 mg/kg monthly), baseline to weeks 13-14", "result": 95, "unit": "%"},
      {"measurement": "IRRs observed", "setting": "[3]", "result": "no IRRs have been observed"},
      {"measurement": "improvement across symptoms of the PRO questionnaire", "setting": "[4]; 8 symptoms, baseline to end of treatment", "result": "improvement across all symptoms measured; also recorded: Improvements were observed across all symptoms"},
      {"measurement": "mean reduction in TSS", "setting": "[4]; both treatment groups, baseline to weeks 13-14, p-value 0.0012", "result": 54, "unit": "%"},
      {"measurement": "reduction in TSS", "setting": "[4]; high dose arm, baseline to weeks 13-14", "result": 58, "unit": "%"},
      {"measurement": "reduction in TSS", "setting": "[4]; low dose arm, baseline to weeks 13-14", "result": 49, "unit": "%"},
      {"measurement": "improvements in symptoms", "setting": "[4]; on day 1 after the first infusion and maintained throughout the study", "result": "statistically significant improvements in symptoms"},
      {"measurement": "percentage of responders", "setting": "[5]; all treated patients, >75% reduction in tissue eosinophils and >30% reduction in TSS at weeks 13-14, p-value 0.0008", "result": 69, "unit": "%"},
      {"measurement": "percentage of responders", "setting": "[5]; high dose arm, weeks 13-14", "result": 70, "unit": "%"},
      {"measurement": "percentage of responders", "setting": "[5]; low dose arm, weeks 13-14", "result": 68, "unit": "%"},
      {"measurement": "other significant AEs", "setting": "[6]; Phase 2 study", "result": "no other significant adverse events (AEs) were observed"},
      {"measurement": "tolerability", "setting": "[6]; Phase 2 study", "result": "generally well tolerated"},
      {"measurement": "IRRs that were mild to moderate", "setting": "[6]; e.g. flushing, feeling of warmth, headache, nausea, dizziness", "result": 95, "unit": "%"},
      {"measurement": "patients with at least 1 treatment-emergent adverse event (AE)", "setting": "[6]; patients receiving antibody", "result": 91, "unit": "%"},
      {"measurement": "drug-related serious AE (number)", "setting": "[6]; was an IRR, patient recovered within 24 hours with no further sequelae", "result": "One"}
    ]}
  ]
}
